# Laboratory results from patent US7226748B2, “HSC70 directed diagnostics and therapeutics for multidrug resistant neoplastic disease” (priority 2003, dated 2007).
# Key:
# [1] = system: hematological tumor cells; experiment: HSC70 vaccine protection against hematological tumor cells in mice; assay type: in vivo; conditions: mice vaccinated prior to injection of tumor cells versus not vaccinated
# E3 target cells = conditions: read-out: IC50 (selective cytotoxicity); cited from earlier work
# [2] = system: antigen-positive E3 cell line; conditions: read-out: IC50 (cytotoxicities); cited from earlier work
# lysosomal hydrolases = conditions: cited from earlier work
molecule,measurement,setting,value
"HSC70: purified full length murine HSC70 protein used as vaccine antigen, may be administered with an adjuvant",tumor size,[1],smaller
"CC(=O)[C@]1(O)Cc2c(O)c3c(c(O)c2[C@@H](O[C@H]2C[C@H](N)[C@H](O)[C@H](C)O2)C1)C(=O)c1ccccc1C3=O [Ida, Idarubicin]",IC50,E3 target cells,120 nM
"O=c1[nH]c(=O)n([C@H]2C[C@H](O)[C@@H](CO)O2)cc1F [FUDR, 5-fluoro-2′-deoxyuridine]",IC50,[2],0.4 nM
Ala-Leu-Dau [Ala-Leu-Dau derivative],time for conversion back to the free drug by lysosomal hydrolases,lysosomal hydrolases,2 h
